Laboratory results reported in patent US20120270928A1, “MICRORNA COMPOUNDS AND METHODS FOR MODULATING MIR-21 ACTIVITY” (REGULUS THERAPEUTICS INC., priority 2011, published 2012).
Where “and” joins values, the source holds several entries; their conditions need not be identical. Identical values can stand only once.

Tests used:
[1] = test system: miR-21; test: miR-21 luciferase sensor assay in Hela cells; type: cell-based; settings: Hela cells
Method: The compounds were assessed for miR-21 inhibitory activity in a luciferase assay. A microRNA luciferase sensor construct was engineered using pGL3-MCS2 (Promega). The construct was introduced into Hela cells to test the ability of anti-miR compounds to inhibit activity of miR-21. In this assay, miR-21 present in the Hela cells binds to its cognate site(s) in the luciferase sensor construct, and suppresses luciferase expression. When the appropriate anti-miR is introduced into the cells, it binds to miR-21 and relieves suppression of luciferase expression. Thus, in this assay anti-miRs that are effective inhibitors of miR-21 expression will cause an increase in luciferase expression.
Hela cells (ATCC), stably transfected with a luciferase construct engineered to contain a sequence complementary of miR-21, were seeded in T-170 flasks (BD Falcon) at 3.5*10^6 cells/flask. Hela cells were grown in Dulbecco's Modified Eagle Medium with High Glucose (Invitrogen).
Each flask of Hela cells was transfected with 0.5 ug of a phRL sensor plasmid (Promega) expressing Renilla to be used in normalization. Hela cells were transfected using 20 ul Lipofectamine 2000/flask (Invitrogen). After 4 hours of transfection, cells were washed with PBS and trypsinized Hela cells were plated at 40 k/well in 24 well plates (BD Falcon) and left overnight.
Hela cells were transfected with anti-miRs using Lipofectin (Invitrogen) at 2.5 ul Lipofectin/100 nM ASO/ml Opti-MEM I Reduced Serum Medium (Invitrogen) for 4 hours. After ASO transfection, Hela cells were refed with Dulbecco's Modified Eagle Medium with High Glucose (Invitrogen).
Hela cells are passively lysed and luciferase activity measured using the Dual-Luciferase Reporter Assay System (Promega).
The luciferase assay was performed to test the ability of anti-miRs with the nucleoside patterns described herein to inhibit the activity of miR-21. Results were compared to a ‘mock’ treatment, in which cells received no anti-miR treatment. The experiment was repeated and results of two experimental replicates are shown in the following Table B, as the luciferase value normalized to beta-galactosidase activity.
The luciferase assay was performed as described herein to test the ability of anti-miRs in Table F to inhibit the activity of miR-21. Results were compared to a ‘mock’ treatment, in which cells received no anti-miR treatment. The experiment was repeated and results of two experimental replicates are shown in the following Table D, as fold change in luciferase value relative to the mock treatment.

[2] = test system: UUO model of kidney fibrosis; test: Unilateral ureteral obstruction (UUO) model of kidney fibrosis: kidney collagen 1A1 and collagen 3A1 expression by real-time PCR; type: in vivo, mice; settings: for Collagen 3A1 (Normalized Expression) Mean / Collagen 1A1 (Normalized Expression) Mean / Collagen 1A1 (Normalized Expression) / Collagen 3A1 (Normalized Expression): Table K, UUO mice, kidney at day 11; for Collagen 3A1 (Normalized Expression) Mean / Collagen 1A1 (Normalized Expression) Mean: group mean; for Collagen 3A1 (Normalized Expression) Mean / Collagen 1A1 (Normalized Expression) Mean / reduction in collagen expression (in words): 20 mg/kg at days -3, -1, +5; for Collagen 3A1 (Normalized Expression) Mean: UUO-PBS mean 87.2; for Collagen 1A1 (Normalized Expression) Mean: UUO-PBS mean 114.9; for Collagen 1A1 (Normalized Expression) / Collagen 3A1 (Normalized Expression): individual animals, 20 mg/kg at days -3, -1, +5 (prophylactic), real-time PCR normalized to GAPDH then sham, 20 mg/kg; for reduction in collagen expression (in words): meta-analysis of UUO studies; for collagen 1A1 expression (FIG. 2A, in words) / collagen 3A1 expression (FIG. 2B, in words): UUO, 20 mg/kg at days -5, -3, +3, kidney at day 10
Method: Unilateral ureteral obstruction (UUO) is a well-established experimental model of renal injury leading to interstitial fibrosis, and thus is used as an experimental model that is reflective of human kidney disease. UUO is induced by surgically ligating a single ureter. As fibrosis is characterized by an increase in collagen, the presence and extent of kidney fibrosis may be determined by measuring collagen content. Both collagen 1A1 (Col 1A1) and collagen 3A1 (Col 3A1) are measured to assess collagen content. Kidney fibrosis may be visualized by staining tissue samples with picro-sirius red to detect increases in collagen content. Kidney fibrosis may also be observed by measuring the amount of hydroxyproline, which is a major component of collagen, in a sample.
The cEt-containing anti-miR-21 compounds found to be active in the luciferase assay were tested in the UUO model of kidney fibrosis. 25919 comprising 2′-MOE and 2′-fluoro modifications is known to inhibit miR-21 activity in vivo and was included as a positive control. Groups of 8 animals each were treated as follows: UUO only, UUO with PBS, or UUO with anti-miR-21 compound. Relative to the day of the UUO procedure, PBS or anti-miR-21 compound was administered at days −3, −1, and +5. Anti-miR-21 compounds were administered at a dose of 20 mg/kg. As the anti-miR compounds were administered prior to the UUO procedure, this dosing regimen is considered a prophylactic treatment. At day 11, animals were sacrificed and kidney was isolated for measurement of collagen expression. Collagen expression was measured by real-time PCR and normalized first to GAPDH and then to the sham control animals.
The UUO study was repeated to confirm the activity of 25070. The anti-miR was administered subcutaneously at a dose of 20 mg/kg.
Control treatment groups included UUO only (sham) and UUO with PBS administered subcutaneously. An additional control group included UUO with Tween-MC/20 carrier perorally. 25070 administered subcutaneously at dose of 20 mg/kg at 5 days prior to, 2 days prior to, and 3 days after, the UUO procedure. Irbesartan was administered perorally on daily on days 0 through 7 following the UUO procedure. Animals were sacrificed on Day 10 following the UUO procedure. Kidney tissue was collected for measurement of collagen 1A1 and collagen 3A1 expression.
Compounds 25220 and 25221, as well as 25923, were tested in the UUO model for their effects on fibrosis. Groups of 8 animals each were treated as follows: sham surgery, UUO with PBS, UUO with 25220, UUO with 25221, or UUO with 25923. Relative to the day of the UUO procedure, PBS or anti-miR-21 compound was administered at days −5, −3, and +3. Anti-miR-21 compounds were administered at a dose of 20 mg/kg. As the anti-miR compounds were administered prior to the UUO procedure, this dosing regimen is considered a prophylactic treatment. At day 10, animals were sacrificed and kidney was isolated for measurement of collagen expression. Collagen expression was measured by real-time PCR and normalized to GAPDH.

[3] = 500 nM oligonucleotide, two experimental replicates

Row | Substance | luciferase value normalized to beta-galactosidase activity ([1]; 4 nM oligonucleotide) | luciferase value normalized to beta-galactosidase activity ([1]; 20 nM oligonucleotide) | luciferase value normalized to beta-galactosidase activity ([1]; 100 nM oligonucleotide) | luciferase value normalized to beta-galactosidase activity [1, 3] | luciferase value normalized to beta-galactosidase activity ([1]; .16 nM oligonucleotide) | luciferase value normalized to beta-galactosidase activity ([1]; .8 nM oligonucleotide) | inhibition of miR-21 activity in the luciferase assay (in words) [1] | Collagen 3A1 (Normalized Expression) Mean [2] | Collagen 1A1 (Normalized Expression) Mean [2] | Collagen 1A1 (Normalized Expression) [2] | Collagen 3A1 (Normalized Expression) [2] | reduction in collagen expression (in words) [2] | collagen 1A1 expression (FIG. 2A, in words) [2] | collagen 3A1 expression (FIG. 2B, in words) [2]
1 | AECSAETECSAEGETECSTEGEAEUSAEAEGECSTEAE (ACATCAGTCTGATAAGCTA; anti-miR; sugar and backbone modifications, code letters not given here, further chemistry not given here) [Compound 25072] | 76 | 86 | 115 | 143 | 40 | 49 | inhibition of miR-21 in a dose-dependent manner | 65.5 | 113.8 | 96.2 and 85.7 and 127.4 and 100.0 and 159.2 and 120.5 and 108.0 | 69.4 and 54.5 and 58.8 and 69.2 and 93.8 and 65.8 and 46.9 | did not consistently demonstrate a reduction in collagen expression |  | 
2 | AECSATCSAGTCSTGAUSAAGCSUsAS (ACATCAGTCTGATAAGCTA; sugar and backbone modifications, chemistry not fully specified) [Compound 25221] |  |  |  |  |  |  |  |  |  |  |  |  | reduced collagen 1A1 and collagen 3A1 expression by a stastically significant amount | reduced collagen 1A1 and collagen 3A1 expression by a stastically significant amount
3 | AECSATCSASGTCSUSGAUSASAGCSUsAE (ACATCAGTCTGATAAGCTA; sugar and backbone modifications, chemistry not fully specified) [Compound 25220] |  |  |  |  |  |  |  |  |  |  |  |  | reduced collagen 1A1 and collagen 3A1 expression by a stastically significant amount | reduced collagen 1A1 and collagen 3A1 expression by a stastically significant amount
4 | TE^MeCAACSATCSAGTCSTGAUSAAGCSTAE (TCAACATCAGTCTGATAAGCTA; modified nucleosides with 5-methyl C, code letters not given here, further chemistry not given here) [Compound 25082] | 112 | 147 | 176 | 202 | 70 | 89 | inhibition of miR-21 in a dose-dependent manner | 59.1 | 91.7 | 122.2 and 188.3 and 102.5 and 67.6 and 40.6 and 44.1 and 73.8 and 94.7 | 62.9 and 78.9 and 82.2 and 43.8 and 32.6 and 34.3 and 75.8 and 62.5 | did not consistently demonstrate a reduction in collagen expression |  | 
5 | TE^MeCEAEAECSAETECSAEGETECSTEGEAEUSAEAEGECSTEAE (TCAACATCAGTCTGATAAGCTA; modified nucleosides and phosphorothioate, code letters not given here, further chemistry not given here) [Compound 25068] | 64 | 86 | 97 | 122 | 45 | 54 | inhibition of miR-21 in a dose-dependent manner | 60.6 | 96.4 | 84.7 and 75.1 and 85.5 and 89.1 and 90.4 and 125.8 and 124.4 | 64.8 and 56.2 and 47.4 and 76.2 and 57.0 and 63.0 and 59.6 | active in reducing collagen expression, but to a lesser extent than 25070 |  | 
